pIC50: −log10 of the molar value. In brackets after ≈: the same amount, converted by molar mass.
Assays:
Solubility = type: physicochemical; settings: pH 6.5, aqueous buffer
Excerpt: Table 1 In Vitro Antiplasmodium Activity, Cytotoxicity, BHIA, and Solubility | column: Solubility pH 6.5, μM

[1] = test system: chloroquine-sensitive (NF54) strain of P. falciparum; experiment: In vitro asexual blood-stage antiplasmodium pLDH assay, NF54 strain; type: cell-based; settings: Plasmodium falciparum, NF54; pLDH, 72 h, n ≥ 3; read-out: In vitro antiplasmodium activity IC50 PfNF54 strain
Protocol: (§1) Compounds were screened against multi-drug-resistant (K1) and sensitive (NF54) strains of P. falciparum in vitro using a parasite lactate dehydrogenase assay (pLDH) (the method is described fully in the Supporting Information). […]
(§2) In vitro Asexual Blood Stage Antiplasmodium Assay
(§3) Parasites were cultured as per the method of Trager and Jensen,1 with modifications. IC50 values were determined using parasite lactate dehydrogenase as a marker for survival (Makler […]
(§4) et al, 1993). The test samples were prepared to a 10 mmol/L stock solution in 100% DMSO.
(§5) Samples were tested as a suspension if not completely dissolved. Further dilutions to the desired starting concentration were freshly prepared in growth media on each occasion of the experiment. The standard antimalarial drugs chloroquine (CQ) and artesunate (Arts) were used as the reference drug in all experiments. A full dose-response was performed for all compounds in a 96-well plate to determine the concentration inhibiting 50% of parasite growth (IC50– value). Test samples were tested at a starting concentration of 6mmol/L, which was then serially diluted 2-fold in growth medium to generate the tested concentration range. The same dilution technique was used for all samples. CQ and Arts were tested from a starting concentration of 1µg/mL. The highest concentration of solvent to which the parasites were exposed was <0.1% and has no measurable effect on the parasite viability (data not shown).
(§6) The assay plate was incubated at 37 °C for 72h in a sealed gas chamber under 3% O2 and 4% CO2 with the balance being N2. After 72h, the wells in the assay plate were gently resuspended, and 15µL from each well was transferred to a duplicate plate containing 100µL of Malstat reagent and 25µL of nitroblue tetrazolium solution in each well. Plates were left to develop for 20 minutes in the dark and then absorbance of each well was quantified using a spectrophotometer at 620nm wavelength.
(§7) The remaining population of parasites at each concentration of the test compound was determined by comparing the absorbance of each well to the absorbance of a well containing […]
(§8) the drug-free control. […]
(§9) The initial 100 µg/mL solution is serially diluted 10-

[2] = test system: Chinese hamster ovarian (CHO) cell line; experiment: In vitro cytotoxicity MTT assay; type: cell-based; settings: CHO vs PfNF54
Protocol: (§10) In vitro cytotoxicity was performed on the Chinese Hamster Ovarian cell line by measuring cellular growth and survival calorimetrically through the MTT assay.[29],[30] The formation of tetrazolium salt was used as a measure of chemosensitivity and growth. (Details of this assay is described in the Supporting Information.) page 19: et al, 1993). The test samples were prepared to a 10 mmol/L stock solution in 100% DMSO. Samples were tested as a suspension if not completely dissolved. Further dilutions to the desired starting concentration were freshly prepared in growth media on each occasion of the experiment. The standard antimalarial drugs chloroquine (CQ) and artesunate (Arts) were used as the reference drug in all experiments. A full dose-response was performed for all compounds […] value). Test samples were tested at a starting concentration of 6mmol/L, which was then serially diluted 2-fold in growth medium to generate the tested concentration range. The same dilution technique was used for all samples. CQ and Arts were tested from a starting concentration of 1μg/mL. The highest concentration of solvent to which the parasites were exposed was <0.1% and has no measurable effect on the parasite viability (data not shown). The assay plate was incubated at 37 °C for 72h in a sealed gas chamber under 3% O2 and 4% CO2 with the balance being N2. After 72h, the wells in the assay plate were gently resuspended, and 15μL from each well was transferred to a duplicate plate containing 100μL of Malstat reagent and 25μL of nitroblue tetrazolium solution in each well. Plates were left to develop for 20 minutes in the dark and then absorbance of each well was quantified using a spectrophotometer at 620nm wavelength. The remaining population of parasites at each concentration of the test compound was determined by comparing the absorbance of each well to the absorbance of a well containing the drug-free control. Survival was plotted against concentration and the IC50 values were obtained using a non-linear dose-response curve fitting analysis via the Dotmatics software platform.2 In vitro Cytotoxicity Assay In vitro cytotoxicity was performed on the Chinese Hamster Ovarian cell line by measuring […] diphenyltetrazolium bromide (MTT) assay.3,4 The formation of tetrazolium salt was used as a measure of chemosensitivity and growth. 2 mg/mL stock solutions of the test compounds were prepared in DMSO and stored at -20 °C until required. The stock solution was subsequently diluted with the assay medium to make up an initial concentration of 100 μg/mL. The initial 100 μg/mL solution is serially diluted 10- S19 page 20: fold to attain six assay concentrations of 100-0.001 μg/mL. […] was used as the reference compound in this assay. The highest concentration of DMSO, which was used as the negative control, had no measurable effect on cell viability. After 44 hours of exposure of the cells to the test compounds, a solution of MTT was added. This was followed by an additional 4 hours of incubation at 37 °C. The assay plates were centrifuged, medium removed, and DMSO was added to the crystals. The amount of formazan was ascertained by measuring the absorbance at 540 nm. GraphPad Prism software was then used to generate IC50 values through a non-linear dose-response curve analysis. β-Hematin Inhibition Assay 20 mM stock solutions of controls and test compounds were made in DMSO. A solution […] was added to every well in columns 1-11 of a 96-well plate. 140 μL of water and 40 μL of 305.5 μM NP-40 were added to column 12 to mediate the formation of beta-hematin. 20 μL of test compounds (20 mM) were added to column 12 and 100 μL of this solution serially diluted to column 2, leaving column 1 blank (0 μM of test compound). 178.8 μL aliquot of hematin stock was suspended in 20 ml of a 1 M acetate buffer at pH 4.9. 100 μL of this hematin suspension was then added into each well, and the plates were incubated for ±5 hrs at 37°C. […]

[3] = In vitro cytotoxicity MTT assay; type: cell-based, Chinese hamster; settings: Chinese hamster, Chinese hamster ovarian (CHO) cells; MTT assay
Protocol: as §10

β-hematin = experiment: β-Hematin inhibition assay (BHIA), cell-free NP-40 mediated; type: biochemical; settings: mean of n = 3
Protocol: page 20: fold to attain six assay concentrations of 100-0.001 μg/mL. […] was used as the reference compound in this assay. The highest concentration of DMSO, which was used as the negative control, had no measurable effect on cell viability. After 44 hours of exposure of the cells to the test compounds, a solution of MTT was added. This was followed by an additional 4 hours of incubation at 37 °C. The assay plates were centrifuged, medium removed, and DMSO was added to the crystals. The amount of formazan was ascertained by measuring the absorbance at 540 nm. GraphPad Prism software was then used to generate IC50 values through a non-linear dose-response curve analysis. β-Hematin Inhibition Assay 20 mM stock solutions of controls and test compounds were made in DMSO. A solution […] was added to every well in columns 1-11 of a 96-well plate. 140 μL of water and 40 μL of 305.5 μM NP-40 were added to column 12 to mediate the formation of beta-hematin. 20 μL of test compounds (20 mM) were added to column 12 and 100 μL of this solution serially diluted to column 2, leaving column 1 blank (0 μM of test compound). 178.8 μL aliquot of hematin stock was suspended in 20 ml of a 1 M acetate buffer at pH 4.9. 100 μL of this hematin […] pH 7.4 and 50% pyridine) and 60 μL of acetone were added to all wells. The absorbances of plate wells were recorded at 405 nm on a SpectraMax plate reader. Sigmoidal dose-response curves with variable slopes were fitted to the absorbance data using GraphPad Prism to obtain the IC50 values for each compound. In vitro Microsomal Stability Assay The in vitro microsomal stability assay was performed in duplicate in a 96-well micro titre […] individually in human (pool of 50, mixed gender), rat (pool of 711, male Sprague Dawley) and mouse (pool of 1634, male CD1) liver microsomes (final protein concentration of 0.4 mg/mL; Xenotech, Kansas, USA), suspended in 0.1M phosphate buffer (pH 7.4). Incubations were S20

[4] = test system: multidrug-resistant (K1) strain of P. falciparum; experiment: In vitro asexual blood-stage antiplasmodium pLDH assay, K1 strain; type: cell-based; settings: Plasmodium falciparum, 72 h, n ≥ 3, read-out: In vitro antiplasmodium activity IC50 PfK1 strain
Protocol: as §1, §2, §3, §4, §5, §6, §7, §8, §9

solubility (Solubility)	pIC50 [1]	pIC50 (β-hematin)	pIC50 [4]	SMILES	SI (selectivity index) = IC50 CHO/IC50 PfNF54 [2]	IC50 at 44 h [3]
135 µM (≈ 48.6 µg/mL)	5.60	3.59	5.39	CCN(CCNc1cc2[nH]c(C)nc2cn1)Cc1ccc(Cl)cc1O [Compound 4, 5-Chloro-2-((ethyl(2-((2-methyl-1H-imidazo[4,5-c]pyridin-6-yl)amino)ethyl)amino)methyl)phenol]	>19.76	> 50 µM
120 µM (≈ 51.6 µg/mL)	5.63	3.14	5.38	CCN(CCNc1cc2[nH]c(C3CCOCC3)nc2cn1)Cc1ccc(Cl)cc1O [Compound 3, 5-Chloro-2-((ethyl(2-((2-(tetrahydro-2H-pyran-4-yl)-1H-imidazo[4,5-c]pyridin-6-yl)amino)ethyl)amino)methyl)phenol]	>21.09	> 50 µM
150 µM (≈ 66.3 µg/mL)	6.17	3.86	5.61	CCN(CCNc1cc2[nH]c(C3CCCCCC3)nc2cn1)Cc1ccc(Cl)cc1O [Compound 15, 5-Chloro-2-(((2-((2-cycloheptyl-1H-imidazo[4,5-c]pyridin-6-yl)amino)ethyl)(ethyl)amino)methyl)phenol]	74.60	50 µM
175 µM (≈ 79.4 µg/mL)	5.78	3.56	5.22	CCN(CCNc1cc2[nH]c(C3(C(F)(F)F)CC3)nc2cn1)Cc1ccc(Cl)cc1O [Compound 7, 5-Chloro-2-((ethyl(2-((2-(1-(trifluoromethyl)cyclopropyl)-1H-imidazo[4,5-c]pyridin-6-yl)amino)ethyl)amino)methyl)phenol]	>29.94	> 50 µM
185 µM (≈ 74 µg/mL)	6.25	3.35	5.22	CCN(CCNc1cc2[nH]c(CC3CC3)nc2cn1)Cc1ccc(Cl)cc1O [Compound 8, 5-Chloro-2-(((2-((2-(cyclopropylmethyl)-1H-imidazo[4,5-c]pyridin-6-yl)amino)ethyl)(ethyl)amino)methyl)phenol]	>89.29	> 50 µM
125 µM (≈ 52 µg/mL)	5.78	3.65	5.79	CCN(CCNc1cc2[nH]c(C3CCOC3)nc2cn1)Cc1ccc(Cl)cc1O (stereo not drawn) [Compound 2, 5-Chloro-2-((ethyl(2-((2-(tetrahydrofuran-3-yl)-1H-imidazo[4,5-c]pyridin-6-yl)amino)ethyl)amino)methyl)phenol]	>29.94	> 50 µM

— article PMC10111423, “Antimalarial Imidazopyridines Incorporating an Intramolecular Hydrogen Bonding Motif: Medicinal Chemistry and Mechanistic Studies” (ACS Infectious Diseases, 2023)
